Source: patent US7763269B2, “Therapeutic foam” (BTG International Ltd., priority 2003, dated 2010)

Test: in vitro absorption of foam/gas in fresh human venous blood
Assay type: in vitro ADME
Conditions: 0.5 ml aliquot in 20 ml stirred blood
Protocol: In vitro experiments were conducted to determine the absorption of foam made with different gases in fresh human venous blood.
A 20 ml polypropylene syringe barrel was prepared by puncturing its side wall with a relatively large hypodermic needle to make a hole approximately 1 mm in diameter. This hole was then covered by securing a piece of clear flexible vinyl sheet over it with clear adhesive tape. A small magnetic stirrer element was introduced into the syringe barrel and the plunger then replaced. 20 ml of human venous blood was then with withdrawn in the usual manner from a human subject using the specially prepared syringe fitted with a hypodermic needle.
The hypodermic needle was removed and the syringe then placed on a magnetic stirrer unit so that the magnetic element in the syringe thoroughly agitated the blood. […]
The needle of the 0.5 ml syringe was then introduced through the vinyl sheet on the side wall of the 20 ml syringe. […] It was determined that a distance of 45 intervals on this scale corresponded to an internal volume of in the manometer tubing of approximately 0.5 ml. […]
In this experiment, the air foam test was only observed for a few minutes after tF. However, further experiments have been conducted by the inventors, the results of which are not formally recorded here, involving foam with a percentage of nitrogen. […]

In the case of `O=O` [Oxygen gas, oxygen], the “Absorbed volume at tF” value is reported as 0.46 mL and the “tF (time until blood column stopped moving)” value is reported as 140 s.
